From patent publication US4731451A, “N-((2-oxo-3(2H)benzothiazolyl)methyl)-2-chloroacetanilides” (Monsanto Company, priority 1980, dated 1988)

Legend:
Format in all cases: in vivo
Hemp Sesbania = assay: Pre-emergent herbicidal activity (Table III)
Method: (§1) The pre-emergence tests are conducted as follows:
(§2) A good grade of top soil is placed in aluminum pans and compacted to a depth of three-eighths to one-half inch from the top of the pan. On the top of the soil is placed a predetermined number of seeds or vegetative propagules of various plant species. The soil required to level fill the pans after seeding or adding vegetative propagules is weighed into a pan. A known amount of the active ingredient applied in a solvent or as a wettable powder suspension and the soil are thoroughly mixed, and used as a cover layer for prepared pans. After treatment, the pans are moved into a greenhouse bench where they are watered from below as needed to give adequate moisture for germination and growth.
(§3) Approximately 2-3 weeks after seeding and treating, the plants are observed and the results recorded. The herbicidal rating is obtained by means of fixed scale based on the percent injury of each plant species. The ratings are defined as follows: […]
(§4) The compounds were further tested by utilizing the above procedure on the following plant species: […]

Crabgrass = assay: Pre-emergent herbicidal activity (Table III)
Method: as §1, §2, §3, §4

Sugarbeet = assay: Pre-emergent herbicidal activity (Table III)
Method: as §1, §2, §3, §4

Sorghum = assay: Pre-emergent herbicidal activity (Table III)
Method: as §1, §2, §3, §4

Wild Buckwheat = assay: Pre-emergent herbicidal activity (Table III)
Method: as §1, §2, §3, §4

Smartweed [1] = assay: Pre-emergent herbicidal activity (Table III)
Method: as §1, §2, §3, §4

Rice = assay: Pre-emergent herbicidal activity (Table III)
Method: as §1, §2, §3, §4

Wheat = assay: Pre-emergent herbicidal activity (Table III)
Method: as §1, §2, §3, §4

Downy Brome [2] = assay: Pre-emergent herbicidal activity (Table III)
Method: as §1, §2, §3, §4

Soybean = assay: Pre-emergent herbicidal activity (Table III)
Method: as §1, §2, §3, §4

Cocklebur [3] = assay: Pre-emergent herbicidal activity (Table III)
Method: as §1, §2, §3, §4

Barnyardgrass [4] = assay: Pre-emergent herbicidal activity (Table III)
Method: as §1, §2, §3, §4

Lambsquarters [5] = assay: Pre-emergent herbicidal activity (Table III)
Method: as §1, §2, §3, §4

Panicum = assay: Pre-emergent herbicidal activity (Table III)
Method: as §1, §2, §3, §4

Velvetleaf [6] = assay: Pre-emergent herbicidal activity (Table III)
Method: as §1, §2, §3, §4

Morningglory [7] = assay: Pre-emergent herbicidal activity (Table III)
Method: as §1, §2, §3, §4

Quackgrass = assay: Pre-emergent herbicidal activity (Table II); details: 2-3 weeks
Method: as §1, §2, §3
(§5) The plant species utilized in one set of tests, the data for which are shown in Table II, are identified by letter in accordance with the following legend: […]

Smartweed [8] = assay: Pre-emergent herbicidal activity (Table II); details: 2-3 weeks
Method: as §1, §2, §3, §5

Downy Brome [9] = assay: Pre-emergent herbicidal activity (Table II); details: 2-3 weeks
Method: as §1, §2, §3, §5

Cocklebur [10] = assay: Pre-emergent herbicidal activity (Table II); details: 2-3 weeks
Method: as §1, §2, §3, §5

Barnyardgrass [11] = assay: Pre-emergent herbicidal activity (Table II); details: 2-3 weeks
Method: as §1, §2, §3, §5

Canada Thistle = assay: Pre-emergent herbicidal activity (Table II); details: 2-3 weeks
Method: as §1, §2, §3, §5

Lambsquarters [12] = assay: Pre-emergent herbicidal activity (Table II); details: 2-3 weeks
Method: as §1, §2, §3, §5

Johnsongrass = assay: Pre-emergent herbicidal activity (Table II); details: 2-3 weeks
Method: as §1, §2, §3, §5

Yellow Nutsedge = assay: Pre-emergent herbicidal activity (Table II); details: 2-3 weeks
Method: as §1, §2, §3, §5

Velvetleaf [13] = assay: Pre-emergent herbicidal activity (Table II); details: 2-3 weeks
Method: as §1, §2, §3, §5

Morningglory [14] = assay: Pre-emergent herbicidal activity (Table II); details: 2-3 weeks
Method: as §1, §2, §3, §5

Measured: Herbicidal rating
Also: ranges in brackets are in %.

CCc1cccc(CC)c1N(Cn1c(=O)sc2ccccc21)C(=O)CCl [Example 3, N--[(2-oxo-3(2H)--benzothiazolyl)methyl]-2'-6'-diethyl-2-chloroacetanilide]
0 (0-24): Hemp Sesbania; 0.28 kg/ha | Hemp Sesbania; 1.12 kg/ha | Hemp Sesbania; 5.6 kg/ha | Sugarbeet; 0.28 kg/ha | Sugarbeet; 1.12 kg/ha | Sugarbeet; 5.6 kg/ha | Sorghum; 0.28 kg/ha | Sorghum; 1.12 kg/ha | Sorghum; 5.6 kg/ha | Wild Buckwheat; 0.28 kg/ha | Wild Buckwheat; 1.12 kg/ha | Wild Buckwheat; 5.6 kg/ha | Smartweed [1]; 0.28 kg/ha | Smartweed [1]; 5.6 kg/ha | Rice; 1.12 kg/ha | Rice; 5.6 kg/ha | Wheat; 0.28 kg/ha | Wheat; 1.12 kg/ha | Wheat; 5.6 kg/ha | Downy Brome [2]; 0.28 kg/ha | Soybean; 0.28 kg/ha | Soybean; 1.12 kg/ha | Soybean; 5.6 kg/ha | Cocklebur [3]; 0.28 kg/ha | Cocklebur [3]; 1.12 kg/ha | Cocklebur [3]; 5.6 kg/ha | Lambsquarters [5]; 0.28 kg/ha | Lambsquarters [5]; 1.12 kg/ha | Lambsquarters [5]; 5.6 kg/ha | Panicum; 0.28 kg/ha | Velvetleaf [6]; 0.28 kg/ha | Velvetleaf [6]; 1.12 kg/ha | Velvetleaf [6]; 5.6 kg/ha | Morningglory [7]; 0.28 kg/ha | Morningglory [7]; 1.12 kg/ha | Morningglory [7]; 5.6 kg/ha | Quackgrass; 5.6 kg/ha | Smartweed [8]; 5.6 kg/ha | Smartweed [8]; 11.2 kg/ha | Cocklebur [10]; 5.6 kg/ha | Cocklebur [10]; 11.2 kg/ha | Canada Thistle; 5.6 kg/ha | Canada Thistle; 11.2 kg/ha | Lambsquarters [12]; 5.6 kg/ha | Lambsquarters [12]; 11.2 kg/ha | Johnsongrass; 5.6 kg/ha | Johnsongrass; 11.2 kg/ha | Velvetleaf [13]; 5.6 kg/ha | Velvetleaf [13]; 11.2 kg/ha | Morningglory [14]; 5.6 kg/ha | Morningglory [14]; 11.2 kg/ha
1 (25-49): Crabgrass; 0.28 kg/ha | Smartweed [1]; 1.12 kg/ha | Rice; 0.28 kg/ha | Downy Brome [2]; 1.12 kg/ha | Panicum; 1.12 kg/ha | Quackgrass; 11.2 kg/ha | Downy Brome [9]; 5.6 kg/ha | Downy Brome [9]; 11.2 kg/ha | Yellow Nutsedge; 5.6 kg/ha | Yellow Nutsedge; 11.2 kg/ha
3 (75-100): Crabgrass; 5.6 kg/ha | Barnyardgrass [4]; 0.28 kg/ha | Barnyardgrass [4]; 1.12 kg/ha | Barnyardgrass [4]; 5.6 kg/ha | Panicum; 5.6 kg/ha | Barnyardgrass [11]; 5.6 kg/ha | Barnyardgrass [11]; 11.2 kg/ha
2 (50-74): Crabgrass; 1.12 kg/ha | Downy Brome [2]; 5.6 kg/ha
